Reference: PubChem BioAssay AID1259426 (Fisher Drug Discovery Resource Center, 2018)
Active and inactive are the calls of the source.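 The calls were made as follows: active = EC50 under a set limit in control cells lacking the mosquito receptor, marking a fluorescence artifact; inactive = the rest.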

Biological target: HEK293 Galpha15/GCaMP6s without NPYLR7, calcium fluorescence
Experiment: nonspecific activation in parental Galpha15/GCaMP6s cells – cell-based, HEK293 lacking NPYLR7, counter-screen for mosquito NPYLR7 agonist project, dose response (AID 1259426);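 also: potency for a rise in fluorescence over baseline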

| Structure (SMILES) | EC50 |
| --- | --- |
| COc1ccc(Cl)cc1NC(=O)/C(C#N)=C/c1coc2ccc(C)cc2c1=O | > 20 µM (inactive) |
| NCCNc1ccc2c3c(cccc13)C(=O)N(c1ccc(Cl)cc1)C2=O | 0.47 µM |
| Cc1ccc2nc(Cn3cnc4c(Cl)cc(Cl)cc4c3=O)cc(=O)n2c1 | > 20 µM (inactive) |
| COC(=O)c1cc(N)c(/C=C/c2cccs2)s1 | 0.577 µM |
| COc1ccc(OC)c(CCNc2nc3cnc(-c4ccc(Cl)cc4)cc3n2C)c1 | > 20 µM (inactive) |
| Nc1ccc2c3c(cccc13)C(=O)N(c1ccccc1)C2=O | 0.415 µM |
| COc1ccc(CCN2COc3ccc4c(c3C2)O/C(=C\c2cccnc2)C4=O)cc1 | > 20 µM (inactive) |
| O=C1NC(c2ccc3c(c2)OCO3)C(C(=O)c2ccccc2)C(O)(C(F)(F)F)N1 (stereo unspecified) | > 20 µM (inactive) |
| COc1cc(C=C2Oc3cc(O)ccc3C2=O)cc(OC)c1OC | 4.83 µM |
| CCOC(=O)c1nc2ccccc2nc1N1CCN(C(=O)N2CCOCC2)CC1 | > 20 µM (inactive) |
| COc1cc(/C=C2\Oc3c(ccc4c3CN(CC3CCCO3)CO4)C2=O)cc(OC)c1OC (stereo unspecified) | 9.34 µM |
| CCCC1CCC(C(=O)Nc2nnc(SCC)s2)CC1 (stereo unspecified) | > 20 µM (inactive) |
| CCCc1[nH]n(-c2ccc(Cl)c(Cl)c2)c(=O)c1/C=C1\NC(=O)N(Cc2ccc(C)cc2)C1=O | 18.9 µM |
| O=C(N=Nc1c(O)[nH]c2ccc(Br)cc12)c1ccccc1Cl | > 20 µM (inactive) |
| N#CC(C#N)=C1C=C2C=C(N3CCCCC3)CCC2CC1 (stereo unspecified) | < 0.039 µM |
| COc1ccccc1Oc1nc2ccccn2c(=O)c1/C=C(\C#N)c1nc2ccccc2s1 | > 20 µM (inactive) |
| O=C(CN1C(=O)SC(=Cc2ccc(N3CCCCCC3)o2)C1=O)N1CCCCCC1 | > 20 µM (inactive) |
| CCOC(=O)N1CCC(NC(=O)c2sc3nc4c(c(C(F)(F)F)c3c2N)CC(C)CC4)CC1 (stereo unspecified) | > 20 µM (inactive) |
| O=C(CSc1cn(CC(=O)N2CCCCCC2)c2ccccc12)NC1CCCC1 | > 20 µM (inactive) |
| CCOc1cccc(C=C2Oc3cc(O)ccc3C2=O)c1OC | > 20 µM (inactive) |
| CCOC(=O)c1ccccc1-c1c2ccc(=N)cc-2oc2cc(N)ccc12 | < 0.039 µM |
| C[C@H]1O[C@H](O[C@@H]2[C@@H](O[C@H]3CC[C@@]4(C)C(CC[C@]5(C)C4CC=C4[C@@H]6CC(C)(C)CC[C@]6(C(=O)O)CC[C@]45C)[C@]3(C)CO)OC[C@@H](O)[C@H]2O)[C@@H](O)[C@H](O)[C@@H]1O (stereo partly specified) | 9.92 µM |
| COc1ccc(/C=C2\Oc3c(ccc4c3CN(CC3CCCO3)CO4)C2=O)cc1 (stereo unspecified) | 9.33 µM |
| COc1ccc(OC)c(CCNc2nc3cnc(-c4ccc5c(c4)OCO5)cc3n2C)c1 | > 20 µM (inactive) |
| COc1cc(C=C(C#N)S(=O)(=O)c2cc(Cl)ccc2Cl)cc(Br)c1O | 6.43 µM |
| Cc1csc(-c2cc3ccc(O)c(CN4CCN(CCO)CC4)c3oc2=O)n1 | < 0.039 µM |

| Structure (SMILES) | EC50 |
| --- | --- |
| COCCCN1COc2ccc3c(c2C1)O/C(=C\c1cc(OC)c(OC)c(OC)c1)C3=O | 11.4 µM |
| COC(=O)C(C)Sc1nc2sc3c(c2c(=O)n1C)CCC3 (stereo unspecified) | > 20 µM (inactive) |
| CC(C)(C)NCC(O)c1ccc(O)c(CO)c1 (stereo unspecified) | > 20 µM (inactive) |
| CCOC(=O)c1c(-c2ccccc2)csc1N=Cc1nc(-c2ccco2)oc1O | > 20 µM (inactive) |
| COc1ccc2c(C)nc(N=C(N)N)nc2c1 | > 20 µM (inactive) |
| C[n+]1c2cc(N)ccc2cc2ccc(N)cc21 | < 0.039 µM |
| Cc1nc(Sc2nnc3ccccn23)c2c3c(sc2n1)CCCC3 | > 20 µM (inactive) |
| O=C1NC(=S)SC1=Cc1cc(O)c(O)c(Cl)c1 | > 20 µM (inactive) |
| C=C(C)Cn1c(C(=O)N2CCN(C(=O)CCC(=O)OCC)C(C)C2)cc2ccoc21 (stereo unspecified) | > 20 µM (inactive) |
| CCN(CC)CCNC(=O)c1c(C)[nH]c(/C=C2/C(=O)Nc3ccc(F)cc32)c1C | 11.3 µM |
| CCCC[n+]1c(C)cc(C=C2Sc3ccccc3N2C)cc1C | > 20 µM (inactive) |
| COc1cc(NC(=O)N2CC(=O)N3CCc4c(F)cccc4C3C2)cc(OC)c1OC (stereo unspecified) | > 20 µM (inactive) |
| COc1ccc(C(=O)C=Cc2cc(Br)c(O)c(OC)c2)cc1F | < 0.039 µM |
| CC(C)Nc1ccc(NS(=O)(=O)NCc2ccccc2)cn1 | > 20 µM (inactive) |
| COc1cccc(CN2COc3ccc4c(c3C2)O/C(=C\c2ccncc2)C4=O)c1 | 11.1 µM |
| CCOc1cc(/C=C2/NC(=S)NC2=O)cc(Br)c1O | 6.37 µM |
| Nc1ncnc2c1ncn2[C@@H]1O[C@H](CO)[C@H](O)C1O (stereo partly specified) | 7.87 µM |
| CCN1/C(=C/C2=CC(=O)CC(C)(C)C2)Sc2ccccc21 | 3.9 µM |
| CCOCCCN1C(=O)C(=Cc2ccccc2O)NC1=S | 0.0898 µM |
| CC(C(=O)O)N1C(=O)/C(=C/c2ccc(N(C)C)cc2)SC1=S (stereo unspecified) | 7.74 µM |
| O=[N+]([O-])c1ccc(Cl)c2nonc12 | 4.83 µM |
| Cc1nn(C)c(Cl)c1/C=C1/CCCc2c1nc1ccccc1c2C(=O)O | > 20 µM (inactive) |
| C=CCC1=CC(=Cc2c(N)n3nc(Cc4cccs4)sc3nc2=O)C=C(OC)C1=O | 2.43 µM |
| O=C(O)CN1C(=O)/C(=C\c2cc([N+](=O)[O-])cc(Br)c2O)SC1=S | 1.07 µM |
| CCOc1cc(/C=C2\SC(=S)N(NC(=O)c3ccccc3O)C2=O)ccc1O | > 20 µM (inactive) |
